# Results reported in ChEMBL document CHEMBL1201862, “PubChem BioAssay data set” (2004).
#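 Exposure lasted 48 hours, with cells grown in 96-well plates and compounds tested at five concentrations. The concentration for 50% growth inhibition is given as GI50.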 The source made the active and inactive calls. Rule as the data show it: active = GI50 up to about 1.1 µM and inactive = higher.
# Legend:
# Assay in all cases: growth of human tumour cells (NCI), 48 h
# 786-0 = tested on: 786-0
# A498 = tested on: A498
# ACHN = tested on: ACHN
# BT-549 = tested on: BT-549
# CCRF-CEM = tested on: CCRF-CEM
# COLO 205 = tested on: COLO 205
# HCC 2998 = tested on: HCC 2998
# HCT-116 = tested on: HCT-116
# HCT-15 = tested on: HCT-15
# HL-60 = tested on: HL-60
# HOP-92 = tested on: HOP-92
# Hs-578T = tested on: Hs-578T
# IGROV-1 = tested on: IGROV-1
# K562 = tested on: K562
# LOX IMVI = tested on: LOX IMVI
# MCF7 = tested on: MCF7
# MDA-MB-231 = tested on: MDA-MB-231
# MDA-N = tested on: MDA-N
# MOLT-4 = tested on: MOLT-4
# Malme-3M = tested on: Malme-3M
# NCI-H226 = tested on: NCI-H226
# NCI-H23 = tested on: NCI-H23
# NCI-H460 = tested on: NCI-H460
# NCI-H522 = tested on: NCI-H522
# NCI/ADR-RES = tested on: NCI/ADR-RES
# OVCAR-8 = tested on: OVCAR-8
# PC-3 = tested on: PC-3
# RPMI-8226 = tested on: RPMI-8226
# SF-268 = tested on: SF-268
# SF-539 = tested on: SF-539
# SK-MEL-28 = tested on: SK-MEL-28
# SK-MEL-2 = tested on: SK-MEL-2
# SK-MEL-5 = tested on: SK-MEL-5
# SN12C = tested on: SN12C
# SR = tested on: SR
# SW-620 = tested on: SW-620
# TK-10 = tested on: TK-10
# U-251 = tested on: U-251
# UACC-257 = tested on: UACC-257
# UACC-62 = tested on: UACC-62
# A549 = tested on: A549
# CAKI-1 = tested on: CAKI-1
# DU-145 = tested on: DU-145
# EKVX = tested on: EKVX
# HOP-62 = tested on: HOP-62
# HT-29 = tested on: HT-29
# KM12 = tested on: KM12
# M14 = tested on: M14
# MDA-MB-435 = tested on: MDA-MB-435
# OVCAR-3 = tested on: OVCAR-3
# OVCAR-4 = tested on: OVCAR-4
# OVCAR-5 = tested on: OVCAR-5
# SF-295 = tested on: SF-295
# SK-OV-3 = tested on: SK-OV-3
# SNB-19 = tested on: SNB-19
# SNB-75 = tested on: SNB-75
# T47D = tested on: T47D
# UO-31 = tested on: UO-31
smiles,measurement,setting,value
Nc1c2c(nc3ccccc13)CCCCCC2,GI50,786-0,16.4 µM (inactive)
same,GI50,A498,20.7 µM (inactive)
same,GI50,ACHN,27.1 µM (inactive)
same,GI50,BT-549,84.5 µM (inactive)
same,GI50,CCRF-CEM,15.6 µM (inactive)
same,GI50,COLO 205,14.2 µM (inactive)
same,GI50,HCC 2998,14.4 µM (inactive)
same,GI50,HCT-116,20.8 µM (inactive)
same,GI50,HCT-15,30.3 µM
same,GI50,HL-60,7.26 µM (inactive)
same,GI50,HOP-92,13.6 µM (inactive)
same,GI50,Hs-578T,38.5 µM (inactive)
same,GI50,IGROV-1,22.4 µM (inactive)
same,GI50,K562,21.5 µM (inactive)
same,GI50,LOX IMVI,16 µM (inactive)
same,GI50,MCF7,26.9 µM (inactive)
same,GI50,MDA-MB-231,18.5 µM (inactive)
same,GI50,MDA-N,16.5 µM (inactive)
same,GI50,MOLT-4,27.2 µM (inactive)
same,GI50,Malme-3M,18 µM (inactive)
same,GI50,NCI-H226,43.3 µM (inactive)
same,GI50,NCI-H23,42.1 µM (inactive)
same,GI50,NCI-H460,16.6 µM (inactive)
same,GI50,NCI-H522,19.6 µM (inactive)
same,GI50,NCI/ADR-RES,37.5 µM (inactive)
same,GI50,OVCAR-8,30.4 µM (inactive)
same,GI50,PC-3,20.8 µM (inactive)
same,GI50,RPMI-8226,19.1 µM (inactive)
same,GI50,SF-268,39.3 µM (inactive)
same,GI50,SF-539,16.1 µM (inactive)
same,GI50,SK-MEL-28,13.8 µM (inactive)
same,GI50,SK-MEL-2,13.7 µM (inactive)
same,GI50,SK-MEL-5,17.5 µM (inactive)
same,GI50,SN12C,40.7 µM (inactive)
same,GI50,SR,15.7 µM (inactive)
same,GI50,SW-620,17.1 µM (inactive)
same,GI50,TK-10,15.2 µM (inactive)
same,GI50,U-251,26.8 µM (inactive)
same,GI50,UACC-257,15.4 µM (inactive)
same,GI50,UACC-62,16.6 µM (inactive)
CC1=CC(=O)/C(=C/NC(=S)c2ccccc2)C(=O)O1,GI50,786-0,> 100 µM (inactive)
same,GI50,A549,> 100 µM (inactive)
same,GI50,ACHN,> 100 µM (inactive)
same,GI50,BT-549,> 100 µM (inactive)
same,GI50,CAKI-1,> 100 µM (inactive)
same,GI50,COLO 205,> 100 µM (inactive)
same,GI50,DU-145,> 100 µM (inactive)
same,GI50,EKVX,> 100 µM (inactive)
same,GI50,HCC 2998,> 100 µM (inactive)
same,GI50,HCT-116,> 100 µM (inactive)
same,GI50,HCT-15,> 100 µM
same,GI50,HOP-62,> 100 µM (inactive)
same,GI50,HOP-92,> 100 µM (inactive)
same,GI50,HT-29,> 100 µM (inactive)
same,GI50,IGROV-1,> 100 µM (inactive)
same,GI50,KM12,> 100 µM (inactive)
same,GI50,LOX IMVI,> 100 µM (inactive)
same,GI50,M14,> 100 µM (inactive)
same,GI50,MCF7,> 100 µM (inactive)
same,GI50,MDA-MB-231,> 100 µM (inactive)
same,GI50,MDA-MB-435,> 100 µM (inactive)
same,GI50,MDA-N,> 100 µM (inactive)
same,GI50,MOLT-4,> 100 µM (inactive)
same,GI50,NCI-H226,> 100 µM (inactive)
same,GI50,NCI-H23,> 100 µM (inactive)
same,GI50,NCI-H460,> 100 µM (inactive)
same,GI50,NCI/ADR-RES,> 100 µM (inactive)
same,GI50,OVCAR-3,> 100 µM (inactive)
same,GI50,OVCAR-4,> 100 µM (inactive)
same,GI50,OVCAR-5,> 100 µM (inactive)
same,GI50,OVCAR-8,> 100 µM (inactive)
same,GI50,PC-3,> 100 µM (inactive)
same,GI50,SF-295,> 100 µM (inactive)
same,GI50,SF-539,> 100 µM (inactive)
same,GI50,SK-MEL-28,> 100 µM (inactive)
same,GI50,SK-MEL-2,> 100 µM (inactive)
same,GI50,SK-MEL-5,> 100 µM (inactive)
same,GI50,SK-OV-3,> 100 µM (inactive)
same,GI50,SN12C,> 100 µM (inactive)
same,GI50,SNB-19,> 100 µM (inactive)
same,GI50,SNB-75,> 100 µM (inactive)
same,GI50,SW-620,> 100 µM (inactive)
same,GI50,T47D,> 100 µM (inactive)
same,GI50,TK-10,> 100 µM (inactive)
same,GI50,U-251,> 100 µM (inactive)
same,GI50,UACC-257,> 100 µM (inactive)
same,GI50,UACC-62,> 100 µM (inactive)
same,GI50,UO-31,> 100 µM (inactive)
